These results are taken from publication PMC4141478 (Nature communications, 2014).

For this assay, the target named is T1, Full length EhIP6KA (Entamoeba histolytica, UniProt C4M387).
T1 sequence (C4M387 1-270): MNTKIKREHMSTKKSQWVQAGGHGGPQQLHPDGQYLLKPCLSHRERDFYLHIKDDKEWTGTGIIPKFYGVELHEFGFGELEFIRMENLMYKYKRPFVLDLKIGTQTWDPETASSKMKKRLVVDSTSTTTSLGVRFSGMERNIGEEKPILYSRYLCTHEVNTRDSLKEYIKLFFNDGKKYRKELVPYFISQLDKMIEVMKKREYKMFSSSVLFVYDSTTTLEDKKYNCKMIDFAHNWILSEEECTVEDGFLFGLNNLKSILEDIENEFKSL
The experiment in a line: NMR of reaction product. The assay is classed as biochemical. Conditions: 3 mM ATP, 2 mM MgCl2, pH 7.0, 37 then 25 C; product 5-InsP7.

For the molecule `O=P(O)(O)O[C@H]1[C@H](OP(=O)(O)O)[C@@H](OP(=O)(O)O)[C@H](OP(=O)(O)O)[C@@H](OP(=O)(O)O)[C@H]1OP(=O)(O)O` [InsP6], the “NMR of reaction product” value was “EhIP6KA, like mammalian IP6Ks, converts InsP6 to 5-InsP7”.
